Read-outs that look alike come from different tables or passages of the source.
Tests used:
[1] = test system: DSS-induced colitis in mice; assay: Prevention of DSS-induced colitis in mice, repeat study with lower PO doses in 0.1 N HCl; assay type: in vivo; details: for weight DAY 0: Day 0 (baseline); for % Inh. Colonic Shortening / % of Normal Length Shortening / DAI mean ± SEM / DAINWT mean ± SEM / Mean Colon Length Cm ± SEM: 5% DSS days 0-7
Description: (§1) All mice were weighed daily and observed for signs of gross toxicity and behavioural changes, consistency of stool and presence of gross blood during the study. On Day 7, all animals were euthanized by CO2 inhalation and necropsied. Following euthanasia, a stool sample was obtained from the colon of each animal and tested for occult blood (Quik-Cult, Laboratory Diagnostics Co., Morganville, N.J.). The colons were then removed and the length from the colo-cecal junction to the end of the distal rectum was measured. A segment of colon was collected from each animal and preserved in 10% formalin.
(§2) For each group, the disease activity index (DAI) was determined by evaluating changes in weight, Hemoccult positivity or gross bleeding and stool consistency using the following system.
(§3) Data was analyzed using analysis of variance (single factor). Statistically methods included the Mann-Whitney test, ANOVA and Turkey-Kramer Multiple Comparisons test.
(§4) Statistical significance between test and control groups was established at a probability of p<0.05.
In view of the above results the experiment was repeated with lower doses of compound 75. The above procedure was followed with the following groups
Individual doses were calculated based on daily body weights. Prior to administration, 50 mg of Compound 75 was diluted with 10 milliliters of 0.1N HCl (50 mg/kg for Group 5). The resulting solution was then further diluted twice, with 5 ml increments and used for the 25 (Group 4) and 12.5 (Group 3) mg/kg dose levels. The 0.1 N HCl was used for Groups 1 and 2 and constituted the vehicle control. Groups 2 through 5 were given a 5% w/w solution of dextran sulfate sodium (DSS) in distilled water substituted for their normal water supply (approximately 10 ml:mouse/day) from Days 0 through 7. Each group of animals received the appropriate amount of the test substance, as described above, by intubation using a stainless steel ball-tipped gavage needle attached to an appropriate syringe.

[2] = test system: DSS-induced colitis in mice; assay type: in vivo; details: for Mean Weight (±SEM) DAY 0: Day 0 (baseline); for Mean Colon Length Cm ± SEM: necropsy Day 7; for deaths: 10 mice/group
Description: The purpose of this study was to identify, characterize and document the preventative actions of compound 75 above, namely (+)-6-[amino(4-chlorophenyl) (1-methyl-1H-imidazol-5-yl)methyl]-4-(3-chlorophenyl)-1-methyl-2(1H)-quinolinone, a compound of formulae (I), in an experimental model of inflammatory bowel disease in mice.
A group of female Swiss-Webster mice was received from Ace Animals, Inc., Boyertown, Pa. The animals were grouped housed (5 mice/cage) in plastic cages with water absorbent bedding. […] The animals were fed Purina Rodent Chow #5012 and filtered tap water was supplied ad libitum by automatic watering system (during acclimation).
Following an acclimation period of 9 days, 40 healthy mice were selected for this study. The test animals were distributed (10 mice/group) into each one of the 4 test groups described below. There were no statistical significant differences between the mean group body weights.
Individual doses were calculated based on daily body weights. Prior to administration, Compound 75 was mixed with the vehicle (Beta cyclodextrin (40%) in 0.1 N HCL). This mixture was further diluted with 0.1 N HCL. The resulting mixture was then used to prepare the dilutions for groups 3 and 4. A 20% solution of Beta cyclodextrin in 0.1 N HCL was used for Groups 1 and 2 and constituted the vehicle control. Groups 2 through 4 were given a 5% w/w solution of dextran sulfate sodium (DSS) in distilled water substituted for their normal water supply (approximately 10 ml/mouse/day) from Days 0 through 6. Each group of animals received the appropriate amount of the test substance, as described above, by intubation using a stainless steel ball-tipped gavage needle attached to an appropriate syringe.
as §1, §2, §3, §4

[3] = 25 mg/kg PO bid days 0-6, 5% DSS
[4] = 50 mg/kg PO bid days 0-6, 5% DSS

Cn1cncc1C(N)(c1ccc(Cl)cc1)c1ccc2c(c1)c(-c1cccc(Cl)c1)cc(=O)n2C (single isomer, unassigned; (+)) [Compound 75, (+)-6-[amino(4-chlorophenyl)(1-methyl-1H-imidazol-5-yl)methyl]-4-(3-chlorophenyl)-1-methyl-2(1H)-quinolinone]
weight DAY 0 ([1]; 12.5 mg/kg PO + DSS): 23.6 ± 0.3
% change (weight) DAY 5 ([1]; 12.5 mg/kg PO + DSS): +1.3 ± 1.0%
weight DAY 5 ([1]; 12.5 mg/kg PO + DSS): 23.9 ± 0.4
% change (weight) DAY 6 ([1]; 12.5 mg/kg PO + DSS): 0.0 ± 1.0%
weight DAY 6 ([1]; 12.5 mg/kg PO + DSS): 23.6 ± 0.4
% change (weight) DAY 7 ([1]; 12.5 mg/kg PO + DSS): +1.3 ± 1.0%
weight DAY 7 ([1]; 12.5 mg/kg PO + DSS): 23.9 ± 0.4
% Inh. Colonic Shortening ([1]; 12.5 mg/kg PO daily): 65%
% of Normal Length Shortening ([1]; 12.5 mg/kg PO daily): 89.6%
DAI mean ± SEM ([1]; 12.5 mg/kg PO daily): 1.57 ± 0.17
DAINWT mean ± SEM ([1]; 12.5 mg/kg PO daily): 2.25 ± 0.25
Mean Colon Length Cm ± SEM ([1]; 12.5 mg/kg PO daily): 10.0 ± 0.1 Cm
weight DAY 0 ([1]; 25 mg/kg PO + DSS): 24.2 ± 0.4
weight DAY 5 ([1]; 25 mg/kg PO + DSS): 24.7 ± 0.6
% change (weight) DAY 6 ([1]; 25 mg/kg PO + DSS): −1.2 ± 1.0%
weight DAY 6 ([1]; 25 mg/kg PO + DSS): 23.9 ± 0.5
% change (weight) DAY 7 ([1]; 25 mg/kg PO + DSS): +2.9 ± 1.0%
weight DAY 7 ([1]; 25 mg/kg PO + DSS): 24.9 ± 0.5
% Inh. Colonic Shortening ([1]; 25 mg/kg PO): 58%
% of Normal Length Shortening ([1]; 25 mg/kg PO): 88.7%
DAI mean ± SEM ([1]; 25 mg/kg PO): 1.53 ± 0.17
DAINWT mean ± SEM ([1]; 25 mg/kg PO): 2.30 ± 0.25
Mean Colon Length Cm ± SEM ([1]; 25 mg/kg PO): 9.9 ± 0.3 Cm
weight DAY 0 ([1]; 50 mg/kg PO + DSS): 23.9 ± 0.3
% change (weight) DAY 5 ([1]; 50 mg/kg PO + DSS): −0.7 ± 1.0%
weight DAY 5 ([1]; 50 mg/kg PO + DSS): 23.9 ± 0.3
% change (weight) DAY 6 ([1]; 50 mg/kg PO + DSS): −1.6 ± 1.0%
weight DAY 6 ([1]; 50 mg/kg PO + DSS): 23.5 ± 0.3
% change (weight) DAY 7 ([1]; 50 mg/kg PO + DSS): −0.3 ± 2.0%
weight DAY 7 ([1]; 50 mg/kg PO + DSS): 23.8 ± 0.3
% Inh. Colonic Shortening ([1]; 50 mg/kg PO): 52%
% of Normal Length Shortening ([1]; 50 mg/kg PO): 87.0%
DAI mean ± SEM ([1]; 50 mg/kg PO): 1.70 ± 0.18
DAINWT mean ± SEM ([1]; 50 mg/kg PO): 2.30 ± 0.24
Mean Colon Length Cm ± SEM ([1]; 50 mg/kg PO): 9.7 ± 0.2 Cm
deaths during the duration of the experiment ([1]; 12.5, 25, 50 mg/kg PO): No deaths
dose of maximal effectiveness on prevention of colonic shortening ([1]; PO daily, lowest dose tested): 12.5 mg/kg
protection based on DAI and DAINWT ([1]; all doses (12.5, 25, 50 mg/kg PO)): statistically significant protection
Mean Weight (±SEM) DAY 0 ([2]; 25 mg/kg PO bid + DSS): 25.1 ± 0.5 grams
% weight change (±SEM) DAY 5 ([2]; 25 mg/kg PO bid + DSS): −8.3 ± 1.5%
Mean Weight (±SEM) DAY 5 ([2]; 25 mg/kg PO bid + DSS): 23.0 ± 0.5 grams
% weight change (±SEM) DAY 6 ([2]; 25 mg/kg PO bid + DSS): −8.7 ± 2.7%
Mean Weight (±SEM) DAY 6 ([2]; 25 mg/kg PO bid + DSS): 22.9 ± 0.7 grams
% weight change (±SEM) DAY 7 ([2]; 25 mg/kg PO bid + DSS): −9.6 ± 3.5%
Mean Weight (±SEM) DAY 7 ([2]; 25 mg/kg PO bid + DSS): 22.7 ± 0.9 grams
% of Normal Length Shortening [2, 3]: 82.0%
Blood in Feces (%) [2, 3]: 0%
DAI mean ± SEM [2, 3]: 1.70 ± 0.26
DAINWT Mean ± SEM (DAI without body weight parameter) [2, 3]: 1.50 ± 0.22
Mean Colon Length Cm ± SEM [2, 3]: 9.7 ± 0.3 Cm
deaths ([2]; 25 mg/kg dose): 1
Mean Weight (±SEM) DAY 0 ([2]; 50 mg/kg PO bid + DSS): 25.6 ± 0.5 grams
% weight change (±SEM) DAY 5 ([2]; 50 mg/kg PO bid + DSS): −9.5 ± 1.3%
Mean Weight (±SEM) DAY 5 ([2]; 50 mg/kg PO bid + DSS): 23.1 ± 0.5 grams
% weight change (±SEM) DAY 6 ([2]; 50 mg/kg PO bid + DSS): −8.8 ± 2.2%
Mean Weight (±SEM) DAY 6 ([2]; 50 mg/kg PO bid + DSS): 23.3 ± 0.8 grams
% weight change (±SEM) DAY 7 ([2]; 50 mg/kg PO bid + DSS): −9.2 ± 1.9%
Mean Weight (±SEM) DAY 7 ([2]; 50 mg/kg PO bid + DSS): 23.2 ± 0.7 grams
% of Normal Length Shortening [2, 4]: 77.9%
Blood in Feces (%) [2, 4]: 22%
DAI mean ± SEM [2, 4]: 2.11 ± 0.25
DAINWT Mean ± SEM (DAI without body weight parameter) [2, 4]: 2.06 ± 0.28
Mean Colon Length Cm ± SEM [2, 4]: 9.2 ± 0.1 Cm
deaths ([2]; 50 mg/kg dose): 1
prevention of colitis produced by 5% Dextran Sulfate Sodium ([2]; PO bid, 5% DSS): significant activity
protection against weight loss ([2]; any dose (25 and 50 mg/kg PO bid)): No significant protection
shortening of the colon produced by DSS ([2]; dose levels of 25 and 50 mg/kg PO bid): prevented
